Assay results from patent US10160785B2, “Antimicrobial peptides and their use for the treatment of topical infections” (priority 2015, dated 2018).
Where a SMILES comes first, the peptide text is derived from it.

How the values were obtained:
human red blood cells = assay: in vitro
Outline: (§1)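 Hemolysis expressed as LC50, the concentration giving 50% erythrocyte lysis. Supernatant A540 was scaled between buffer-only blank and 0.2% Triton X100 total lysis after 1 h, 37 °C exposure of 5% v/v human red cells to 2-200 μmol.l^−1 peptide in physiological solution.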

[1] = system: Methicillin resistant Staphylococcus aureus (MRSA) 6271; details: 37° C., 20 h
Outline: (§2)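 Growth was followed by absorbance at 540 nm every 15 min over 20 h at 37 °C with shaking. Bacteria from exponential phase (ca 10^5 CFU per well) faced final peptide levels of 0.1 to 100 μmol.l^−1 in LB, and the MIC was read from growth inhibition.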

[2] = system: Enterococcus faecalis Motol; details: BHI medium, 37° C., 20 h
Bacillus subtilis = details: Bacillus subtilis; 37° C., 20 h
Outline: as §2

Escherichia coli = details: 37° C., 20 h
Outline: as §2

[3] = system: Staphylococcus epidermidis Motol; details: 37° C., 20 h
Outline: as §2

[4] = system: Staphylococcus aureus Motol; details: Staphylococcus aureus Motol clinical isolate; 37° C., 20 h
Outline: as §2

[5] = system: Staphylococcus aureus Liberec; details: Staphylococcus aureus Liberec clinical isolate; 37° C., 20 h
Outline: as §2

[6] = system: Pseudomonas aeruginosa Liberec; details: Pseudomonas aeruginosa Liberec; 37° C., 20 h
Outline: as §2

Candida albicans Olomouc = details: Candida albicans Olomouc; YPD medium; 37° C., 20 h (Example 2)
[7] = system: Pseudomonas aeruginosa 5482; details: 37° C., 20 h
Outline: as §2

[8] = system: S. aureus (Liberec) biofilm; assay: Bacterial biofilm, remaining metabolic activity (MTT); assay type: cell-based, Staphylococcus aureus; details: remaining metabolic activity of biofilm, 20 h
Protocol: (§3) Inoculum of S. aureus (Liberec) or P. aeruginosa (Liberec) cultivated overnight in BHI medium was diluted with fresh BHI medium containing 1% glucose to a final concentration to be ca. 10^8 CFU/ml. Then this was pipetted (100 μl) to 96-multiwell polystyrene plate which was incubated at 37° C. under rotary shaking (300 RPM) for 24 h. Medium without bacteria in the wells was used as a negative control. Supernatant from each well was drained and the biofilm formed on the bottom and on the walls of the wells was cautiously washed three times by sterile physiological solution (300 μl). The peptides tested in the concentrations of 1-128 μmol.l^−1 were prepared by twofold serial dilution of their stock solution (1 mmol.l^−1) in fresh BHI medium and then pipetted (100 μl) to the wells with formed biofilms. The biofilms covered by BHI medium without peptide were used as a positive control. The plates were then incubated for 20 h as described above. After that the liquid was drained out and wells were washed twice with sterile physiological solution.
(§4) The metabolic activity of surviving bacterial cells in the biofilm was determined by staining with MTT (3-(4,5-dimethylthiazol-2-yl)-2,5-diphenyl-2H-tetrazolium bromide) as follows: The mixture of BHI medium (100 μl) and 10 μl of the stock solution of MTT (5 mg/ml in physiological solution) was added to each well and the plate was incubated 40 min at 37° C. The liquid was drained out and the insoluble formazan crystals formed by reduction inside the biofilm were dissolved with dimethyl sulphoxide (100 μl). The intensity of staining in each well was measured as absorbance at 540 nm on a Tecan Infinite M200 Pro reader (Tecan GmbH, Austria). Remaining activity of surviving cells inside the biofilm was expressed for each well in percentage according to the following equation:
(§5) [formula] where A is the absorbance of the tested compound, ABL is the absorbance of the negative control, and AC is the absorbance of control biofilm.

[9] = system: Candida albicans (Olomouc) biofilm; assay: C. albicans biofilm, remaining metabolic activity (XTT); assay type: cell-based
Outline: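 Candida albicans (Olomouc) biofilms grown 48 h at 37 °C in MOPS-buffered RPMI 1640 from 1×10^6 CFU inocula, then exposed 20 h to peptide at 0.39-200 μmol.l^−1. XTT/PMS staining for 90 min, A540; remaining metabolic activity expressed as percent of untreated biofilm after blank correction.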

[10] = system: P. aeruginosa (Liberec) biofilm; assay: Bacterial biofilm, remaining metabolic activity (MTT); assay type: cell-based, Pseudomonas aeruginosa; details: remaining metabolic activity of biofilm, 20 h
Protocol: as §3, §4, §5

in vitro = details: human
Outline: as §1

C. glabrata ATCC 2001 = assay: Lethal effect on yeast cells by plating test; assay type: cell-based, Candida glabrata; details: 15 minutes exposure, peptide alone, FIG. 1B
Protocol: C. glabrata ATCC 2001 cells were aerobically cultivated at 30° C. on YPD medium (Formedium) overnight. A small volume of inoculum was added to fresh YPD medium to final concentration of cells 5×10^6 CFU/ml (corresponding value OD600=0.2). Yeast cells were cultivated at 30° C. (190 rpm) until they reach early exponential growth phase, usually further 4-5 h. Cells were harvested, washed twice with distilled water (1.5 min, 3000 g) and resuspended in MES-TEA buffer (10 mM 4-morpholineethanesulphonic acid, pH 6.0 adjusted with triethanolamine, both chemicals from Sigma-Aldrich) to OD600=0.2.
Cells from the early exponential growth phase were washed twice with sterile distilled water (1.5 min, 3000 g) and resuspended in MES-TEA buffer to OD600=0.2. The cell suspension was divided into 1 ml aliquots in Eppendorf tubes. One sample served as a control, the tested compounds (peptides, ODDC) were added in selected concentrations to the rest of samples. Cells were incubated with drugs with occasional gentle stirring for 15 minutes, then 10 μl of cells were diluted 100-fold in distilled water and 15 μl aliquots were spread on 2% YPD agar (Formedium) plates (diameter of Petri plate 9 cm). The samples were always plated in triplicates. The number of colonies was determined after 24-h incubation of the plates at 30° C. […]

[11] = system: Candida glabrata ATCC 2001; assay: microbe, parasite or virus in culture; assay type: cell-based; details: RPMI broth microdilution, 35° C., 48 hours, visual
Outline: (§6)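 Broth microdilution in RPMI 1640 with 0.165 mol.l^−1 MOPS; peptide dilutions of 0.625–160 μmol.l^−1 were added to wells, then inoculum at 5×10^2–2.5×10^3 CFU/ml final. Plates were incubated unshaken at 35 °C. MIC was read visually at 48 h as the lowest concentration without visible growth.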

[12] = system: Candida albicans (Olomouc); assay: microbe, parasite or virus in culture; assay type: cell-based; details: RPMI broth microdilution, 35° C., 48 hours, visual
Outline: as §6

Candida glabrata DSY 565 = assay: microbe, parasite or virus in culture; assay type: cell-based; details: RPMI broth microdilution, 35° C., 48 hours, visual
Outline: as §6

[13] = system: Candida albicans ATCC MYA-2876; assay: microbe, parasite or virus in culture; assay type: cell-based; details: RPMI broth microdilution, 35° C., 48 hours, visual
Outline: as §6

[14] = system: Candida dubliniensis ATCC MYA-646; assay: microbe, parasite or virus in culture; assay type: cell-based; details: RPMI broth microdilution, 35° C., 48 hours, visual
Outline: as §6

[15] = system: Candida tropicalis ATCC 750; assay: microbe, parasite or virus in culture; assay type: cell-based; details: RPMI broth microdilution, 35° C., 48 hours, visual
Outline: as §6

Candida krusei ATCC 6258 = assay: microbe, parasite or virus in culture; assay type: cell-based; details: RPMI broth microdilution, 35° C., 48 hours, visual
Outline: as §6

Micrococcus luteus = details: Micrococcus luteus; 37° C., 20 h
Outline: as §2

S. aureus (Liberec) = assay: Synergistic effect of peptides with antibiotics, FIC index; assay type: cell-based, Staphylococcus aureus; details: peptide combined with amoxicillin; FIC <0.5 synergism, 0.5-2 additive, >2 antagonism; averages of three experiments
Protocol: MICs values of various combinations of two fold serial dilutions of peptides and antibiotics were determined using the same methodology as in the case of antimicrobial activity determination (Example 2). To consider the type of the final effect, FIC indexes (fractional inhibitory concentration) were used and calculated as follows:
[formula] where MICPC and MICAC are the MICs of the peptide and antibiotic in combination, respectively, and MICP and MICA are the MICs of the peptide and antibiotic tested alone, respectively. FIC<0.5 were considered as synergy, 0.5≤FIC≤2 as addition effect, and FIC>2 as antagonism.

P. aeruginosa (Liberec) = assay: as above; assay type: cell-based, Pseudomonas aeruginosa; details: FIC <0.5 synergism, 0.5-2 additive, >2 antagonism, averages of three experiments
Outline: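 Checkerboard MICs of two-fold serial dilutions of peptide plus antibiotic, same broth method as single-agent MICs. FIC index is the sum of each agent's MIC in combination divided by its MIC alone. <0.5 = synergy, 0.5–2 = additive, >2 = antagonism.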

[16] = peptide concentration 8 μmol · l^−1
[17] = peptide concentration 16 μmol · l^−1
[18] = peptide concentration 32 μmol · l^−1
[19] = peptide concentration 64 μmol · l^−1
[20] = peptide concentration 128 μmol · l^−1

Row | Molecule | Antimicrobial activity MIC S. a. 6271 [1] [µM] | Antimicrobial activity MIC E. f. Motol [2] [µM] | Antimicrobial activity MIC B. s. (Bacillus subtilis) [µM] | Antimicrobial activity MIC E. c. (Escherichia coli) [µM] | Antimicrobial activity MIC S. e. Motol [3] [µM] | Antimicrobial activity MIC S. a. Motol [4] [µM] | Antimicrobial activity MIC S. a. Liberec [5] [µM] | Antimicrobial activity MIC P. a. Liberec [6] [µM] | Antimicrobial activity MIC C. a. Olomouc (Candida albicans Olomouc) [µM] | Antimicrobial activity MIC P. a. 5482 [7] [µM] | Metabolic activity (%) S. aureus (Liberec) [8, 16] [%] | Metabolic activity (%) S. aureus (Liberec) [8, 17] [%] | Metabolic activity (%) S. aureus (Liberec) [8, 18] [%] | Metabolic activity (%) S. aureus (Liberec) [8, 19] [%] | Metabolic activity (%) S. aureus (Liberec) [8, 20] [%] | further results
1 | H-Gly-Ile-Leu-Ser-Ser-Leu-Trp-Lys-Lys-Leu-Lys-Lys-Ile-Ile-Ala-Lys-NH2 (H-GILSSLWKKLKKIIAK-NH2; also: D-amino acids (positions not given here)) [XIX] | 6.3 | 6.5 | 2.0 | 13.0 | 1.6 | 3.2 | 3.2 | 8.5 | 26.0 | 6.3 | 72.8 | 2.8 | 2.3 | 2.3 | 1.7 | CC50 (human red blood cells; read-out: Hemolytic activity LC50, lysis of 50% of human erythrocytes, 1 h at 37° C.): > 200 µM
2 | H-GIMSSLMKKLAAHIAK-NH2 [hylanine, reference compound] |  |  |  |  |  |  |  |  |  |  |  |  |  |  |  | toxicity against eukaryotic cells measured as hemolytic activity (human red blood cells; in words): very low
3 | CC[C@@H](C)[C@@H](NC(=O)CN)C(=O)N[C@H](CCSC)C(=O)N[C@H](CO)C(=O)N[C@H](CO)C(=O)N[C@H](CC(C)C)C(=O)N[C@H](CCSC)C(=O)N[C@H](CCCCN)C(=O)N[C@H](CCCCN)C(=O)N[C@H](CC(C)C)C(=O)N[C@H](CCCCN)C(=O)N[C@H](CCCCN)C(=O)N[C@@H](C(=O)N[C@@H](C(=O)N[C@H](C)C(=O)N[C@H](CCCCN)C(N)=O)[C@H](C)CC)[C@H](C)CC [II] (HELM PEPTIDE1{G.[dI].[dM].[dS].[dS].[dL].[dM].[dK].[dK].[dL].[dK].[dK].[dI].[dI].[dA].[dK].[am]}$$$$V2.0) |  |  |  |  |  |  |  |  |  |  | 143.1 | 138.8 | 107.5 | 29.9 | 7.7 | Metabolic activity of C. albicans (%) ([9]; peptide concentration 6.25 μmol · l^−1, 20 hours): 105.3%; Metabolic activity of C. albicans (%) ([9]; peptide concentration 12.5 μmol · l^−1, 20 hours): 114.2%; Metabolic activity of C. albicans (%) ([9]; peptide concentration 25 μmol · l^−1, 20 hours): 35.2%; Metabolic activity of C. albicans (%) ([9]; peptide concentration 50 μmol · l^−1, 20 hours): 1.0%; Metabolic activity of C. albicans (%) ([9]; peptide concentration 100 μmol · l^−1, 20 hours): 0.0%; Metabolic activity of C. albicans (%) ([9]; peptide concentration 200 μmol · l^−1, 20 hours): 0.0%; Metabolic activity (%) P. aeruginosa (Liberec) [10, 16]: 94.2%; Metabolic activity (%) P. aeruginosa (Liberec) [10, 17]: 100.5%; Metabolic activity (%) P. aeruginosa (Liberec) [10, 18]: 79.1%; Metabolic activity (%) P. aeruginosa (Liberec) [10, 19]: 33.0%; Metabolic activity (%) P. aeruginosa (Liberec) [10, 20]: 26.7%; CC50 at 1 h (in vitro): > 400 µM; antifungal (lethal) effect in plating test (C. glabrata ATCC 2001): high antifungal effect
4 | H-GIMSSLMKKLKKIIKK-NH2 [VII] | 54.0 | >100 | 2.5 | 22.0 | 1.7 | 64.7 | 18.0 | 9.9 | 6.3 | 7.1 |  |  |  |  |  | Antifungal activity MIC C. glabrata ATCC 2001 [11]: 40.0 µM; Antifungal activity MIC C. albicans Olomouc [12]: 17.0 µM; Antifungal activity MIC C. glabrata DSY 565 (Candida glabrata DSY 565): 97.8 µM; Antifungal activity MIC C. albicans ATCC MYA-2876 [13]: 22.0 µM; Antifungal activity MIC C. dubliniensis ATCC MYA-646 [14]: 20.0 µM; Antifungal activity MIC C. tropicalis ATCC 750 [15]: 1.1 µM; Antifungal activity MIC C. krusei ATCC 6258 (Candida krusei ATCC 6258): 10.0 µM; HC50 at 1 h (in vitro): > 400 µM; Antimicrobial activity MIC M. l. (Micrococcus luteus): 1.9 µM; FIC indexes (fractional inhibitory concentration) Combination with AMX against S. aureus (S. aureus (Liberec)): 0.167; FIC indexes (fractional inhibitory concentration) Combination with RIF against P. aeruginosa (P. aeruginosa (Liberec); peptide combined with rifampicin): 0.365; FIC indexes (fractional inhibitory concentration) Combination with TET against P. aeruginosa (P. aeruginosa (Liberec); peptide combined with tetracycline): 0.625
